From patent US20160138077A1, “MONITORING AND ASSESSING DEACETYLASE ENZYME ACTIVITY” (THE GENERAL HOSPITAL CORPORATION, priority 2013, published 2016)

Columns and labels:
Type in all cases: biochemical
HDAC1 = target: T1, HDAC1 (Homo sapiens, UniProt Q13547); test: LCMS characterization of enzymatic deacetylation by HDAC1; conditions: 5 μM probe, 12 hours at 37° C.
T1 construct: purchased Cayman Chemicals
Method: The enzymatic cleavage of HP-1 and HP-2 was analyzed by performing LCMS assays with HeLa nuclear extract (AnaSpec), HeLa whole cell lysate (Santa Cruz Inc.), and the following purified HDAC isoforms: 1, 2, 3, 6 and 8 (HDAC1, 3 and 8 from Cayman Chemicals and HDAC2 and 6 provided by Dr. Stephen Haggarty). Solutions containing (i) vehicle with DMSO in HDAC buffer, (ii) 5 μM probe in HDAC buffer, (iii) 5 μM probe and HDAC enzyme/HeLa nuclear extract/HeLa whole cell lysate in HDAC buffer, or (iv) 5 μM probe and HDAC enzyme/HeLa nuclear extract/HeLa whole cell lysate pre-incubated with 10 μM SAHA (Provided by Dr. Stephen Haggarty) in HDAC buffer were incubated for 12 hours at 37° C. Following incubation, a 20 μL aliquot of supernatant from each sample was analyzed by LCMS. […] For HP-1, the (M+H)^+ ion for the corresponding aldehyde (8, DHP-1) was detected, which formed following reaction of the initial imine deacetylation product with water. […] The peak area for each detected compound was measured to determine the % deacetylation of each probe. All assay samples were analyzed in triplicate. […]
LCMS characterization of HDAC enzymatic action on HP-1 and HP-2. […] Following incubation, an aliquot of supernatant from each sample was analyzed by LCMS. […] The peak area for each detected compound was measured to determine the % deacetylation of each probe (full experimental details in Example 1).

HDAC2 = HDAC2 (Homo sapiens, UniProt Q92769); test: Caliper microfluidic endpoint IC50 assay
Method: (§1) HP-1 and HP-2 IC50 values for HDAC1 were determined using the Trypsin-coupled assay as well as the Caliper endpoint assay. HP-1 and HP-2 IC50 values for HDAC2, HDAC3, HDAC6 and HDAC8 were determined with the Caliper endpoint assay.
(§2) The Caliper microfluidic assay was performed at the Broad Institute exactly as previously described.^5
(§3) IC50 measurements. HP-1 and HP-2 IC50 values for HDAC1 were determined using the Trypsin-coupled assay as well as the Caliper endpoint assay. HP-1 and HP-2 IC50 values for HDAC2, HDAC3, HDAC6 and HDAC8 were determined with the Caliper endpoint assay (full experimental details in Example 1).

HDAC6 = target: T2, HDAC6 (Homo sapiens, UniProt Q9UBN7); test: Caliper microfluidic endpoint IC50 assay
T2 sequence (Q9UBN7 1-1215): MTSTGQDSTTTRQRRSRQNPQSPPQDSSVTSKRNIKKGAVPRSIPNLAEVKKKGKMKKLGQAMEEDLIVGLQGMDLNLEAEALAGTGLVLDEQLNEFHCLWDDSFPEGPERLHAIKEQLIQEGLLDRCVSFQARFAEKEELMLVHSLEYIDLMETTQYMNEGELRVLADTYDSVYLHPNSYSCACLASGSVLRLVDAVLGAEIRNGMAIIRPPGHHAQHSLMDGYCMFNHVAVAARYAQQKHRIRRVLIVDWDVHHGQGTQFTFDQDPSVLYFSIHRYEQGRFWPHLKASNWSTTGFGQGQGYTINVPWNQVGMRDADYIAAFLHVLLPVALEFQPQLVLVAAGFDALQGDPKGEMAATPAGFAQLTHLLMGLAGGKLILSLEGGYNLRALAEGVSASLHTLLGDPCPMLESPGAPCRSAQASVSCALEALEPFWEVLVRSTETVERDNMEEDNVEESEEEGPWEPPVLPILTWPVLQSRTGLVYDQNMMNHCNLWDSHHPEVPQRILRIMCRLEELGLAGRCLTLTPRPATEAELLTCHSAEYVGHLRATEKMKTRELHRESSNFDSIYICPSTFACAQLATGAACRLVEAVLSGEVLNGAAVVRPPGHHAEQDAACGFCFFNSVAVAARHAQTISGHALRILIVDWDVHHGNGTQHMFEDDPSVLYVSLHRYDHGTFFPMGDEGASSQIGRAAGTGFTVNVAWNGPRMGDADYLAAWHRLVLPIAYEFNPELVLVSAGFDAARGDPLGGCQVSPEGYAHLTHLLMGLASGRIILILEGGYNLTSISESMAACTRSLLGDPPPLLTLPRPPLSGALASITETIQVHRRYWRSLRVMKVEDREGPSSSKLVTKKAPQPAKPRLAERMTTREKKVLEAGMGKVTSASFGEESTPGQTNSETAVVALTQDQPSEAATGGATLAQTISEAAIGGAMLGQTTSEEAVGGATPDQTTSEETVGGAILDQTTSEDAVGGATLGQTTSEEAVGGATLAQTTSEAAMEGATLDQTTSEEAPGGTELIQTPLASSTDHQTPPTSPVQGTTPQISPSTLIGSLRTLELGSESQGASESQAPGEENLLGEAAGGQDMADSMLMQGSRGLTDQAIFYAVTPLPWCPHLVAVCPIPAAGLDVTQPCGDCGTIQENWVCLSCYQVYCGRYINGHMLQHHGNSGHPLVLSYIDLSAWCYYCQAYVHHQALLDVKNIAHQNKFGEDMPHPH
Method: as §1, §2, §3

HDAC8 = target: T3, HDAC8 (Homo sapiens, UniProt Q9BY41); test: Caliper microfluidic endpoint IC50 assay
T3 construct: purchased Cayman Chemicals
T3 sequence (Q9BY41 1-377): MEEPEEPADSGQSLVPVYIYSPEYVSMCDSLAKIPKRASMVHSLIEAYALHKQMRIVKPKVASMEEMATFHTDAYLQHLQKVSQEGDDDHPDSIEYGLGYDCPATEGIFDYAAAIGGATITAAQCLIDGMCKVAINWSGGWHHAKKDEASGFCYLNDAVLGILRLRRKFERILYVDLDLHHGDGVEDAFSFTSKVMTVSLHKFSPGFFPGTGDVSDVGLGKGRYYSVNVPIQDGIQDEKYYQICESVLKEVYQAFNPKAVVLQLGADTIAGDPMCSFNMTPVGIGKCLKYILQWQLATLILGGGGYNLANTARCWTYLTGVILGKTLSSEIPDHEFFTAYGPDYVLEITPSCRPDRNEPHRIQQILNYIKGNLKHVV
Method: as §1, §2, §3

T1 sequence (Q13547 whole entry): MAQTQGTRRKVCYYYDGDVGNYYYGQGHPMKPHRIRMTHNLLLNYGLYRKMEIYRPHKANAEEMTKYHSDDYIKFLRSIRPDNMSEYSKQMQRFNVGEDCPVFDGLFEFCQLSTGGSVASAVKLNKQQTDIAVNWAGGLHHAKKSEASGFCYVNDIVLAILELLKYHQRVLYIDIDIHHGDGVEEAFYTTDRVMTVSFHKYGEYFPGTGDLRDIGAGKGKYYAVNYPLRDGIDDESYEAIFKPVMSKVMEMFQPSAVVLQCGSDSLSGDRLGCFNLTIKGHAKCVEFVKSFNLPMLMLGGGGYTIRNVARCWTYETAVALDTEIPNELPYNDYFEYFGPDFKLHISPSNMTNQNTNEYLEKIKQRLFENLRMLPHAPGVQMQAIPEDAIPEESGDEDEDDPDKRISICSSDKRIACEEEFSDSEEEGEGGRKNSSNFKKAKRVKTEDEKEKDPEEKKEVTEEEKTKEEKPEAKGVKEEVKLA
Chain of HDAC2 (Q92769 whole entry, species assumed): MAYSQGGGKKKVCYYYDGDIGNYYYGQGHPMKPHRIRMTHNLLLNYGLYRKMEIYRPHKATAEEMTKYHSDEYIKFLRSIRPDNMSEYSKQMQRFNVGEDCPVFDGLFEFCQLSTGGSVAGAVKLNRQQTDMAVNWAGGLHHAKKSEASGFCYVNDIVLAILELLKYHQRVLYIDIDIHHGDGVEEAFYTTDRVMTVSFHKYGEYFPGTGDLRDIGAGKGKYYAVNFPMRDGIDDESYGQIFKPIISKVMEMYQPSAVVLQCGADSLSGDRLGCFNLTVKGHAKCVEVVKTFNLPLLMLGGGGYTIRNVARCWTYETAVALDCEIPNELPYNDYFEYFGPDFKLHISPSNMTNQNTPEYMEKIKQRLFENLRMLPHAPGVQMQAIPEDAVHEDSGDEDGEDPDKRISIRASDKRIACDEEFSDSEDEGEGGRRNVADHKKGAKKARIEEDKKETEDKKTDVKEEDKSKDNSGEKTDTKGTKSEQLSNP

CC(=O)NC=CCCCCNC(=O)CCCCCNc1ccc([N+](=O)[O-])c2nonc12 [HP-1]
% HP-1 to DHP-1 (HDAC1; HDAC1, +SAHA (10 μM pre-incubated)): 0%
% HP-1 to DHP-1 (HDAC1; HDAC1, −SAHA, maximum detected conversion, 1.5:1 trans:cis mixture): 15%
IC50 (HDAC2): > 70 µM
IC50 (HDAC6; HDAC6, Caliper endpoint assay): 12 µM
binding to HDAC6 (in words) (HDAC6; competitive inhibition with a peptide substrate): bind
IC50 (HDAC8): > 70 µM
